PMC8391421, “Identification of Novel Positive Allosteric Modulators of Neurotrophin Receptors for the Treatment of Cognitive Dysfunction” (Cells, 2021)

Legend:
[1] = test system: Shaffer collaterals-CA1 pathway, hippocampal slices; test: Facilitation of long-term potentiation in rat hippocampal slices; settings: 20 µM added 15 min before Ø burst stimulation; n = 7 slices from 5 rats
Protocol: Male Sprague Dawley rats (4–5 weeks old) from Charles River Laboratories, Sulzfeld, Germany, were used in these experiments. Rats were deeply anesthetized using isoflurane and decapitated soon after the disappearance of the corneal reflexes. The brains were removed and placed in ice-cold standard artificial CSF (aCSF) solution (124 mM NaCl, 30 mM NaHCO3, 10 mM glucose, 1.25 mM NaH2PO4, 3.5 mM KCl, 1 mM MgCl2, 2 mM CaCl2). Hippocampal horizontal sections (400 µm thick) were prepared using a Leica VT1200S vibratome (Leica Microsystems, Kista, Sweden). Immediately after slicing, sections were transferred into an interface incubation chamber filled with standard aCSF. The chamber was held at 34 °C during the slicing period and was subsequently allowed to cool down to room temperature. […] The facilitation of long-term potentiation (LTP) was monitored in the Shaffer collaterals (SC)-CA1 pathway in the hippocampus. […] Data were normalized with respect to the mean fEPSP slope recorded during the last 10 min of the baseline period.
It has been well-described that the transient, short-term plasticity of synaptic strength induced by a weak stimulation in hippocampal slices can turn into long-term potentiation (LTP) through the exogenous application of BDNF [71, 72, 73]. […] In the control slices, the recorded potentiation decreased to the baseline level after 60 min. […]

[2] = test system: Wistar rats; test: Novel object recognition; assay type: in vivo, rat; settings: 1 mg/kg
Protocol: The novel object recognition model was conducted by Suven Life Sciences Ltd. (Hyderabad, India) using male Wistar rats (n = 12/group). This study was performed in compliance with the requirements and in-house animal care and usage policy of the Institutional Animal Ethics Committee (IAEC). The experiment was conducted over a 5-day period. For the first 3 days, ACD855 or vehicle were administered to the animals. On Day 4, the rats were acclimatized to their respective arenas for 20 min and then returned to their home cages for the administration of ACD855 or vehicle (1 h post habituation phase). On Day 5, the rats were administered vehicle or ACD855 1 h prior to trial, donepezil (1 mg/kg) was injected 30 min prior to trial, and scopolamine (1 mg/kg) was injected 20 min prior to trial. 20 min after scopolamine administration, the rats were subjected to the familiarization phase. The experiment was performed as described by Lueptow. The discriminative index for the drug-treated groups was compared to that of the vehicle group by use of the Kruskal–Wallis test. The discriminative index is the ratio of time spent exploring the novel object divided by the sum of the time spent exploring the novel object and a familiar object in the choice trial.

[3] = test system: C57BL/6J mice; test: Passive avoidance task; assay type: in vivo, mouse
Protocol: The passive avoidance (PA) task is an associate learning paradigm that is based on Pavlovian fear-conditioning and instrumental conditioning and conducted as previously described in male C57BL/6J mice (n = 7–8/group) from Charles River Laboratories, Sulzfeld, Germany. Vehicle or ACD855 (1, 3 or 10 mg/kg), formulated in 20% DMSO in 0.1 M sodium phosphate buffer pH 8.0, was administered daily (Days 1–4) through s.c. injections (4 mL/kg body weight). ACD856 (0.1, 0.3, 1 or 3 mg/kg) was administered by a single s.c. dose on the training day (Day 4). ACD855, ACD856, ANA-12 (0.5 mg/kg, from Sigma Aldrich, Stockholm, Sweden), physostigmine (0.025 mg/kg, from Sigma Aldrich, Stockholm, Sweden), or vehicle was administered 60 min prior to training, except for when addressing the effects on consolidation, in which case, ACD856 was dosed 5 min after the training session on day 4. Moreover, on the training day (Day 4), scopolamine or the NMDA-antagonist MK-801 (both from Sigma Aldrich, Stockholm, Sweden) at 0.3 mg/kg or vehicle was administered once s.c. 30 min prior to training. No compound was administered on the test day (Day 5), except for when addressing effects on retrieval, in which case, ACD856 was dosed 30 min prior to testing on day 5. Retention latencies and time spent in the bright compartment were determined 24 h after training (Day 5).

Cc1cc(-n2c(=O)[nH]c(=O)n(C)c2=O)ccc1Oc1ccc(S(=O)(=O)C(F)(F)F)cc1 [ACD855, Toltrazuril-sulfone]
long-lasting potentiation of evoked synaptic responses (fEPSP slope), fold increase [1]: 1.21 ± 0.03 fold | time with novel object vs familiar object after scopolamine [2]: spent significantly more time with the novel object | effect on scopolamine-induced memory impairment (time spent in bright compartment) ([3]; 3 or 10 mg/kg s.c. once daily for four days, scopolamine 0.3 mg/kg): significantly attenuate | effect of ANA-12 on compound's reversal of scopolamine-induced memory impairment ([3]; ANA-12 0.5 mg/kg s.c.): blocked by ANA-12 | effect on MK-801-induced memory impairment ([3]; MK-801 0.3 mg/kg): ameliorate | effect of combined administration with physostigmine on scopolamine-induced memory impairment ([3]; low dose of compound plus physostigmine 0.025 mg/kg): significantly reverse | effect of low dose alone on scopolamine-induced memory impairment ([3]; low doses given by themselves, physostigmine 0.025 mg/kg): no significant effect | pro-cognitive effects and other behavioral parameters in naive animals ([3]; naïve young healthy animals): none of the two compounds had any pro-cognitive effects
